Measurements published in US4232121A, “Process for selecting methine dyes which inhibit cell growth” (Eastman Kodak Company, priority 1978, dated 1980).
Where two headings read alike, the source gives them in different places.

Columns and labels:
[1] = not told
Method: If a published reduction potential is not available, suitable techniques for measuring reduction potential are available and can be used. […] This technique involves measurement at 20° C., of an approximately 10^-4 molar solution of the dye in an electrolyte, such as methanol which is 0.05 molar in lithium chloride, using a dropping mercury electrode. The potential values are reported by reference to a silver-silver chloride electrode in a saturated solution of potassium chloride at 20° C.

[2] = test system: Bacillus pumilus (K-1)
Method: This can be accomplished by contacting a given concentration of the dye with the cells, removing the cells from the dye solution and then comparing the optical density (at λmax) of the remaining dye solution with a control containing the original concentration of the dye. The percentage decrease in optical density indicates the percentage of dye which has been bound to the cells.
The culture was collected by centrifugation at 5,000×g. for 10 minutes, and the resultant pellet was washed several times in cold 0.05 M potassium phosphate buffer, pH 7.0. The pellet was resuspended in the buffer solution to a final optical density of 1.0 at 620 nm as measured with a Bausch and Lomb Spectronic 20.
One-tenth ml of dye solution (1 mg/ml in methanol) was added to a tube containing 5 ml of cell suspension described above and a control tube containing 0.05 M potassium phosphate buffer, pH 7.0. All tubes were well agitated using a Vari-Whirl Mixer (Will Scientific Co.) and then centrifuged at 10,000×g. for 10 minutes.
The percent binding of dye to the cells for each dye, was determined by comparison of the density at λmax of the control supernatant sample with the density at λmax of the supernatant of the cell sample.

[3] = test system: Sea Urchin Eggs; assay: Inhibition of cell division in fertilized sea urchin eggs; type: cell-based; conditions: arbitrary scale 0 to 5, 5 most active; dye 10^-5 to 10^-6 molar, 60 minutes after fertilization
Method: To suspensions in filtered sea water of fertilized sea urchin eggs there was added, three minutes after fertilization, methanolic solutions of the dyes in an amount sufficient to yield a final concentration of dye of between 10^-5 and 10^-6 molar. The final concentration of methanol was, at a maximum 1×10^-4 molar. The eggs were visually observed at 60 minutes after fertilization to determine if cell division and the formation of mitotic apparatus had been inhibited. A rating was assigned based on the concentration of dye required to inhibit cell division and synthesis of DNA.

[4] = test system: Bacillus pumilus strain K-1; assay: Inhibition of bacterial growth, filter paper on inoculated agar plates; type: cell-based; conditions: for zone of inhibition at 100 µM / zone of inhibition at 1000 µM: read-out: Diameter of Inhibition
Method: Nutrient broth was prepared by mixing 8 grams of BACTO dehydrated nutrient broth per liter of distilled water. […] Samples of the nutrient broth were then inoculated with Bacillus pumilus strain K-1 culture. […]
Nutrient agar was prepared by mixing 23 grams of BACTO nutrient agar per liter of distilled water. The nutrient agar was sterilized in the same way as the nutrient broth. After it has cooled to about 45° C. 250 ml of the nutrient agar solution was aeseptically inoculated with 5 ml of the Bacillus pumilus, K-1 culture prepared in (A), above. Plates of the inoculated nutrient agar were then poured and allowed to harden.
[…] To minimize possible photocatalyzed reactions of the dyes, all preparations were performed under yellow lights and all incubations were performed in the dark.
Schleider and Schuell #740-E filter paper (12.7 mm diameter) was dipped in the dye solution, touched to the side of the beaker to removed excess dye, and placed in the center of the inoculated agar plates (prepared in (B) above). […] The plates were then examined to determine if bacterial growth had been affected by the dye-containing filter paper. […]
Control plates were prepared in which the filter paper contained methanol or a 0.2 molar aqueous solution of phenol. […]

[5] = Oxidation potential (Eox) of the dye; type: physicochemical; conditions: Tables I, II, V, VI
[6] = test system: Enterobacter aerogenes; assay: Inhibition of bacterial growth, filter paper technique; type: cell-based; conditions: Table VIII; 0.2 M phenol; 37° C./48 hrs
Method: (§1) Schleider and Schuell #740-E filter paper (12.7 mm diameter) was dipped in the dye solution, touched to the side of the beaker to removed excess dye, and placed in the center of the inoculated agar plates (prepared in (B) above). The plates were then incubated at 26° C. for […]. The plates were then examined to determine if bacterial growth had been affected by the dye-containing filter paper. With certain dyes bacterial growth was inhibited in a circular area around the filter paper. With other dyes no such area of inhibition was observed.
(§2) Cultures of various gram-negative and gram-positive bacteria were prepared in nutrient and Tryptic Soy Agar and plates were poured as described in Example 1. Methanolic solutions of cyanine dyes were prepared at 10^-3 molar and applied to the plates using the filter paper technique described in Example 1. Control plates were prepared in which the filter paper contained methanol or a 0.2 molar aqueous solution of phenol. The plates were then incubated at 26° C. or 37° C. for forty-eight hours.

[7] = test system: Micrococus luteus; assay: as above; type: cell-based; conditions: 48 h, read-out: Area of Inhibition (diameter), control
Method: as §1, §2

[8] = test system: Micrococcus flavus; assay: as above; type: cell-based; conditions: Micrococcus flavus, 48 h, read-out: Area of Inhibition (diameter), control
Method: as §1, §2

[9] = test system: Bacillus megaterium; assay: as above; type: cell-based; conditions: Table VIII; 0.2 M phenol; Tryptic Soy; 37° C./48 hrs
Method: as §1, §2

[10] = test system: Alcaligenes faecalis; assay: as above; type: cell-based; conditions: Alcaligenes faecalis, 48 h, read-out: Area of Inhibition (diameter), control
Method: as §1, §2

[11] = test system: Proteus vulgaris; assay: as above; type: cell-based; conditions: Table VIII; 0.2 M phenol; 37° C./48 hrs
Method: as §1, §2

[12] = test system: Escherichia coli, Strain B; assay: as above; type: cell-based; conditions: Table VIII; 0.2 M phenol; 37° C./48 hrs
Method: as §1, §2

[13] = test system: Bacillus cereus; assay: as above; type: cell-based; conditions: Bacillus cereus, 48 h, read-out: Area of Inhibition (diameter), control
Method: as §1, §2

[14] = test system: Bacillus subtilis; assay: as above; type: cell-based; conditions: 48 h, read-out: Area of Inhibition (diameter), control
Method: as §1, §2

[15] = Bacillus pumilus, K1, Table II, 10^-4 molar, 26° C., forty-eight hours
[16] = Bacillus pumilus, K1, Table IX, 10^-4 M
[17] = Bacillus pumilus, K1, Table IX, 10^-3 M
[18] = Bacillus pumilus, K1, 72 h, Tables V and VI, 10^-3 molar, three days
[19] = Table II, 10^-4 molar, 26° C., forty-eight hours
[20] = Bacillus pumilus, K1, read-out: Diameter of Inhibition

SMILES	ER [1]	reduction potential (ER) [1]	% Bound [2]	Sea Urchin Eggs Activity [3]	Activity Rating [4]	Eox [5]	other results
CCC(=Cc1sc2ccc(Cl)cc2[n+]1CC)C=C1Sc2ccc(Cl)cc2N1CC [Dye 15]	-1.06	-1.06 volts	74.9%	+4	04		zone of inhibition at 100 µM [4, 15]: 13.5 mm; zone of inhibition at 100 µM [4, 16]: 13.5 mm
CCN1C(=CC=Cc2sc3cc4ccccc4cc3[n+]2CC)Sc2cc3ccccc3cc21 [Dye 19]			100%	0			
Clc1ccc2nc3c(nc2c1)N(c1ccccc1)C(=CC=Cc1n(-c2ccccc2)c2nc4ccc(Cl)cc4nc2[n+]1-c1ccccc1)N3c1ccccc1 [Dye 25]		-0.65 volts	92.6%	0			
CCN1C(=CC=Cc2sc3ccc(Cl)cc3[n+]2CC)Sc2ccc(Cl)cc21 [Dye 20]		-0.86 volts	76.3%	+3	9		zone of inhibition at 1000 µM [4, 17]: 14 mm
CCN1C(=CC=Cc2oc3cc(S(=O)(=O)[O-])ccc3[n+]2CC)Oc2cc(S(=O)(=O)O)ccc21 [7,6,6'-disulfo]	-1.26					+1.00	Diameter of Inhibition ([4]; Tables V and VI, 10^-3 molar, three days): None
CCN1C(=Cc2ccc3ccccc3[n+]2CC)C=Cc2ccccc21 [Dye 16]	-1.03	-1.03 volts	28.7%	+5	100		zone of inhibition at 100 µM [4, 15]: 25.5 mm; zone of inhibition at 100 µM [4, 16]: 25.5 mm
CCN1C(=CC=Cc2oc3ccc(C)cc3[n+]2CC)Oc2ccc(C)cc21 [Dye 5]		-1.28 volts	97.6%	+4	65		zone of inhibition at 1000 µM [4, 17]: 27 mm
CCN1C(=CC=Cc2oc3cc(OC)ccc3[n+]2CC)Oc2cc(OC)ccc21 [7,6,6'-dimethoxy]	-1.31					+.84	zone of inhibition at 1000 µM [4, 18]: 28.5 mm
CC[n+]1c(C=Cc2c(-c3cccnc3)n(C)c3ccccc23)sc2cc([N+](=O)[O-])ccc21 [Dye 32]		-0.32 volts	61.0%	+2	0	> +1.00	Diameter of Inhibition [4, 19]: None; Diameter of Inhibition ([4]; Table IX, 10^-4 M): None
CCN1C(=CC=Cc2scc(-c3ccccc3)[n+]2CC)SC=C1c1ccccc1 [Dye 3]	-1.35	-1.35 volts	11.2%	+5	29		zone of inhibition at 100 µM ([4]; Bacillus pumilus, K1, Table I, 10^-4 molar, 26° C., fifty hours, dark): 18.5 mm; zone of inhibition at 100 µM [4, 15]: 19 mm; zone of inhibition at 100 µM [4, 16]: 19 mm
CCN1C(=CN=Nc2sc3ccccc3[n+]2CC)Sc2ccccc21 [Dye 26]		-0.64 volts	56.3%	+2	8	> +1.00	zone of inhibition at 100 µM [4, 15]: 14.5 mm; zone of inhibition at 100 µM [4, 16]: 14.5 mm
CCN1C(=CC=Cc2oc3cc(OC)ccc3[n+]2CC)Oc2cc(OC)ccc21 [Dye 4]		-1.31 volts	97.2%	+4	71		zone of inhibition at 1000 µM [4, 17]: 28.5 mm
CCN1C(=CC=Cc2sc3ccc(Cl)cc3[n+]2CC)Sc2ccc(Cl)cc21 [17,5,5'-dichloro]	-.86					+.85	zone of inhibition at 1000 µM [4, 18]: 14 mm
Oc1ccccc1 [Phenol, reference compound]							zone of inhibition at 200000 µM ([4]; Bacillus pumilus, K1, 48 h, read-out: Area of Inhibition (diameter), control): 22 mm; zone of inhibition at 53000 µM [4, 20]: 18 mm; zone of inhibition at 106000 µM [4, 20]: 22 mm; zone of inhibition at 213000 µM [4, 20]: 26 mm; Area of Inhibition (diameter), control [6]: No; zone of inhibition at 200000 µM [7]: 15 mm; zone of inhibition at 200000 µM [8]: 16 mm; Area of Inhibition (diameter), control [9]: Slight; zone of inhibition at 200000 µM [10]: 15 mm; Area of Inhibition (diameter), control [11]: No; Area of Inhibition (diameter), control [12]: No; zone of inhibition at 200000 µM [13]: 14 mm; zone of inhibition at 200000 µM [14]: 13 mm
Cn1c(-c2ccccc2)c(C=CC=C2C(c3ccccc3)=[N+](C)c3c2ccc2ccccc32)c2ccc3ccccc3c21 [Dye 34]		-0.11 volts	75.0%	0	0		Diameter of Inhibition ([4]; Table I, 10^-4 molar, 26° C., fifty hours, dark): None; Diameter of Inhibition [4, 19]: None; Diameter of Inhibition ([4]; Table IX, 10^-4 M): None
CCN1C(=CC=Cc2oc3ccc(C)cc3[n+]2CC)Oc2ccc(C)cc21 [7,5,5'-dimethyl]	-1.28					+.96	zone of inhibition at 1000 µM [4, 18]: 27 mm
CCN1C(=CC=Cc2sc3cc4ccccc4nc3[n+]2CC)Sc2cc3ccccc3nc21 [Dye 27]		-0.63 volts		0	0	> +1.00	Diameter of Inhibition [4, 19]: None; Diameter of Inhibition ([4]; Table IX, 10^-4 M): None
Cn1c(-c2ccccc2)c(C=Cc2sc3cc([N+](=O)[O-])c(Cl)cc3[n+]2C)c2ccccc21 [Dye 31]		-0.41 volts	54.2%	0	0	> +1.00	Diameter of Inhibition [4, 19]: None; Diameter of Inhibition ([4]; Table IX, 10^-4 M): None
CCN1C(=Cc2sc3ccc4ccccc4c3[n+]2CC)Sc2ccc3ccccc3c21 [Dye 2]	-1.60	-1.60 volts	31.8%		0		Diameter of Inhibition [4, 19]: None; Diameter of Inhibition ([4]; Table IX, 10^-3 M): None; Diameter of Inhibition ([4]; Table IX, 10^-4 M): None
CCN1C(=CC=Cc2oc3cc(Cl)ccc3[n+]2CC)Oc2cc(Cl)ccc21 [7,6,6'-dichloro]	-1.17					+1.07	zone of inhibition at 1000 µM [4, 18]: 28.5 mm
CCN1C(=CC(C)=Cc2sc3ccccc3[n+]2CC)Sc2ccccc21 [Dye 11]	-1.16	-1.16 volts	98.9%		25		zone of inhibition at 100 µM [4, 15]: 18 mm; zone of inhibition at 100 µM [4, 16]: 18 mm
